We go through three compounds from patent US20250359549A1, “PESTICIDE BACTERICIDAL COMPOSITION, WATER DISPERSIBLE GRANULE AND PREPARATION METHOD AND USE THEREOF” (QINGDAO RAINBOW CHEMICAL CO., LTD., priority 2023, published 2025).

Where two headings read alike, the source gives them in different places.

As usually defined, the EC50 is the concentration at which the effect is half-maximal.

The conditions of data set [1]: 20° C., cited from earlier work.
For another data set, the system named is plasmopara viticola. As to the kind of experiment: Indoor toxicity measurement, leaf disk method. The class given is in vivo. As to conditions: grape downy mildew; for EC50: Plasmopara viticola, foliar, read-out: Measured EC50 value (X2). Here is the method: After the pesticide solution was naturally dried in air, each treated leaf disc with an upward back was placed in a culture dish, and absorbent paper moistened with the same pesticide solution was placed at the bottom of the culture dish. 15 leaf discs were placed in a concentric circle for each dish, with 4 repetitions for 1 dish treated. Blank control was treated with a 0.1% Tween-80 aqueous solution. Inoculation was performed after 24 h of pesticide treatment. […] The spore sac suspension was cultured with an artificial climate chamber. […] The severity of the disease was determined according to the percentage of the diseased area on the leaf disc to the leaf disc area, the number of diseased leaf discs and the severity of the disease were recorded, and the disease index and prevention and control effect were calculated according to the formula. […] The toxicity regression curve equation y=a+bx and the correlation coefficient r were obtained, and the EC50 of each single agent and different proportions of mixtures was calculated based on the regression equation. Based on the EC50 values of each single agent and compounded agent, the synergistic coefficients (SR) of each compounded agent were calculated according to Wadley method, and the compounding effect was evaluated by using SR value. […] In equations (1) and (2), SR is the synergistic coefficient of the mixture; X1 is the theoretical EC50 value of the mixture, unit: milligrams per liter (mg/L); X2 is the measured EC50 value of the mixture, unit: milligrams per liter (mg/L). […] X1′ is the theoretical value of the mixture, unit: milligrams per liter (mg/L); X2 is the measured value of the mixture, unit: milligrams per liter (mg/L). […] Similarly, the synergistic coefficients SRs of chlorothalonil and picoxystrobin (A+C)+tebuconazole (B) (referred to as (A+C)+B), tebuconazole and picoxystrobin (B+C)+chlorothalonil (A) (referred to as (B+C)+A) can be calculated.

The conditions of data set [2]: cited from earlier work.
For data set [3] the following is noted: 25° C.; cited from earlier work.

`CC(C)(C)C(O)(CCc1ccc(Cl)cc1)Cn1cncn1` (racemic) [Tebuconazole]: the entries for the “solubility in an organic solvent” value in data set [1] (dichloromethane) and in data set [1] (hexane) were over 200 mg/mL and under 0.1 mg/mL, respectively. Moreover, the EC50 in the data set on plasmopara viticola came out at 3.29 µg/mL.

Take `N#Cc1c(Cl)c(Cl)c(Cl)c(C#N)c1Cl` [Chlorothalonil]: in data set [2] (pH>9), the Hydrolysis result is “slowly hydrolyzed”. Also, the Stability entry in data set [2] (storage at room temperature, weak alkaline and acidic aqueous solutions, UV radiation) was “stably stored at room temperature, and stable to weak alkaline and acidic aqueous solutions and UV radiation”. In the data set on plasmopara viticola, the EC50 turned out to be 24.6 µg/mL. In data set [3], the “distribution coefficient log P” value is on record as 2.92.

As for `CO/C=C(/C(=O)OC)c1ccccc1COc1cccc(C(F)(F)F)n1` [Picoxystrobin], the “Measured EC50 value (X2)” value in the data set with plasmopara viticola was found to be 2.48 µg/mL.
